In series [1] the test system is human aortic endothelial cells. The series is described as follows: Secretion of ET-1 and proET-1 peptides from cultured human aortic endothelial cells (sandwich ELISA). The series is classed as cell-based. The note with it: 6 h incubation. From the text:
To confirm that proET-1 peptides are a reproducible index of ET-1 synthesis we compared the level of peptide production in cultured human aortic endothelial cells under conditions known to increase or decrease ET-1 expression. These experiments also confirmed that early passage human endothelial cells from primary cultures produce the same peptides with the stoichiometric relationship expected for proET-1 processing.
Figure 3 Correlation between secretion of ET-1 and proET-1 peptides from human aortic endothelial cells. Confluent cultures were incubated for 6 h in basal medium alone, or with 1 mM phosphoramidon (PHA), 2.5 or 5 µg/ml apple procyanidin pentamer (AP-2.5, AP-5), 5 µg/ml grape seed extract (GSE), 10 ng/ml TNFα or 1 ng/ml TGFß. All peptides were measured using specific sandwich ELISAs, and converted to % basal release (A,B,C,E and G). Results are mean ± SD from 4 experiments. Significant differences were determined by ANOVA with Bonferroni correction for multiple comparisons (*P = < 0.05; ***P = < 0.001). (D,F) and (H) show correlations between secretion of ET-1 and the respective proET-1 peptides under the different incubation conditions (excluding data obtained with phosporamidon).
Underlined sequences in Table 1 indicate peptide antigens used to raise specific antisera for sandwich immunoassays following previously described methodologies. Immunogens for ppET-1[93–109] and ppET-1[155–166] were prepared by conjugation via terminal Cys residues to maleimide groups on pre-treated carrier proteins. To enable conjugation of ppET-1[18–30], ppET-1[93–102] and ppET-1[169–186] by the maleimide methodology, synthetic peptides for these antigens included a C-terminal Cys-NH2 residue. Immunogens for ppET-1[42–50] and ppET-1[204–212] were prepared by glutaraldehyde conjugation to carrier protein[30]. For initial characterisation of conditioned media samples, rabbit antisera raised against ppET-1[42–50] and ppET-1[93–102] were used to establish radioimmunoassays for these peptide antigens. Subsequent investigations used sandwich ELISA methodologies with specific IgG purified from antisera using the respective peptide antigens (Table 1) coupled to SulfoLink Coupling Resin (Thermo Scientific/Pierce) or CNBr-Sepharose (GE Healthcare)[30]. Purified IgG for use as detection antibodies were biotinylated with NHS-LC-LC-biotin (Thermo Scientific/Pierce), and used for assay measurements with enhanced chemiluminescence.
EA.hy 926 and A549 cell lines were grown in Dulbecco’s modified Eagle medium with 10% fetal bovine serum at 37 °C in a humidified CO2 incubator (8% CO2, 92% air) as previously described, [30]. Human aortic endothelial cells were passaged cells from primary cultures grown in endothelial cell basal medium with growth supplement (Cell Applications Inc.), and used when confluent to compare secretion of proET-1 peptides with ET-1. Purified apple procyanidin pentamer was from Asahi Breweries (Moriya, Ibaraki 302–0106, Japan), grape seed extract was form Polyphenolics (Madera, CA), TNFα and TGFβ were from R&D Systems.
Background: In an ELISA, binding on a coated surface is turned into a signal by an enzyme label.

A short description of series [2]: Clearance of proET-1 peptides after i.v. bolus in anaesthetised rats. In kind it is in vivo, rat. The note with it: rat; for plasma level at 30 s as % of administered peptide, relative to estimates for dilution in circulating blood: 1 nmol/kg i.v., hypothetical maximum plasma concentration 23–35 pmol/ml; for level at time molar at 0.5 min: iv, anaesthetised male Wistar rats, bolus 1 nmol/kg i.v. of each peptide as a combined solution in 0.9% saline/0.1% BSA, arterial plasma, Luminex multiplex immunoassay, mean ± SD, read-out: plasma level 30 s after injection. The procedure: To examine whether circulating half-lives influenced plasma levels of proET-1 peptides clearance rates were investigated in anaesthetised rats. […] Based on a circulating blood volume of 7.2 ± 0.3 ml per 100 g body weight, a mean weight of 345 ± 6 g and hematocrit of 40–60%, the hypothetical maximum plasma concentrations were 23–35 pmol/ml. However, the levels of NT-proET-1, ELDP and CT-proET-1 30 s after injection were 0.29 ± 0.02, 3.65 ± 0.23, and 11.74 ± 0.64 pmol/ml, respectively. Relative to estimates for dilution in circulating blood, these values represent ≈1%, 10–16%, and 34–51% of administered peptide for NT-proET-1, ELDP and CT-proET-1. Moreover, NT-proET-1 was almost completely cleared from the circulation in <5 min (estimated initial t½ < 20 s).
Figure 5 Comparison of clearance rates of NT-proET-1, ELDP and CT-proET-1 in anaesthetised rats. A bolus dose containing 1 nmol/kg of each proET-1 peptide as a combined solution prepared in 0.9% saline/0.1% BSA was administered i.v. and heparinised arterial blood samples (0.5 ml) were collected at 0.5, 1, 2, 5, 10, 20 and 40 min after administration of proET-1 peptides. NT-proET-1 (mauve circles), ELDP (red circles) and CT-proET-1 (blue circles) were measured by magnetic bead-based multiplex assays using Luminex methodology (values are mean ± SD, except where SD is less than the symbol size).
A multiplexed immunoassay system was used for simultaneous measurement of NT-proET-1, ELDP and CT-proET-1 in small volumes of rat plasma. Capture antibodies were conjugated to magnetic beads (region 45 – NT-proET-1, region 36 – ELDP, and region 27 – CT-proET-1) following standard protocols (Luminex Corporation). For assay capture antibody-coated magnetic beads were diluted as a premixed combination (10 µl/well) and incubated overnight at 4 °C on an orbital plate mixer with plasma (15 µl) and assay buffer (135 µl). For detection, beads were washed using a ring magnet plate washer before adding 25 µl of combined biotinylated detection antibodies and incubating for 2 h at room temperature on an orbital plate mixer.
All experiments were conducted according to the Animals (Scientific Procedures) Act 1986, UK, and approved by the UK Home Office. Clearance rates of proET-1 peptides and blood pressure effects of ELDP were determined in male Wistar rats (Charles River) anaesthetised with sodium thiopentone (120 mg/kg i.p.). Peptides were administered i.v. via a polyethylene catheter in the left femoral vein. Blood samples (0.5 ml) were collected from a catheter in the left carotid artery into chilled 1.5 ml microcentrifuge tubes containing 50 U/5 µl of heparin. Samples were centrifuged at 12,000 rpm for 2 min at 4 °C. Plasma (50 µl aliquots) samples were stored at −80 °C for subsequent analyses. Blood pressure and heart rate were recorded from the left carotid artery via a polyethylene catheter using Labchart 7.1 (AD Instruments Ltd).

The conditions of series [3]: ET-1; cited from earlier work. From the text:
After intravenous injection NT-proET-1 was rapidly eliminated from the circulation (t½ < 20 s). Such rapid clearance indicates uptake or metabolism. ET-1 also has a short t½ (30–60 s)[42], [43], which is due primarily to clearance by endothelial ETB receptors in the pulmonary vasculature, [45], and to a lesser extent degradation by neutral endopeptidase 24.11, particularly in post capillary veins, [47]. In the absence of receptor-mediated clearance, the high disappearance rate of NT-proET-1 is likely due to peptidase activity in the circulation, particularly in the pulmonary circulatio ...

The nature of series [4]: RP-HPLC elution position of synthetic proET-1 peptides. The series is classed as physicochemical. The following applies: ACE-5 C4 300 Å, 5 µm, 4.6 × 250 mm, 1 ml/min, 0.1% TFA – 10% solvent B (80% CH3CN with 0.1% TFA) over 2 min, then 10–30% B over 50 min, 1 min fractions, absorbance at 280 nm and immunoassay. The procedure: Figure 2 Size exclusion chromatography of peptide precipitates from (A) EA.hy 926 and (B) A549 cell lines, (C) cation exchange chromatography of conditioned media from EA.hy 926, and HPLC characterisation of pro-ET-1 peptides from EA.hy 926 cells – (D) NT-proET-1, (E) ELDP and (F) CT-proET-1. (A) and (B) proendothelin-1 peptides from EA.hy 926 and A549 cell lines were subjected to size exclusion chromatography (column 1.6 × 100 cm, Sephadex G50 superfine) equilibrated at 4 °C with 0.1 M NaCl containing 0.01 M HCl. Fractions were subjected to immunoassay for ppET-1[42–50] (open circles) and ppET-1[93–102] (closed circles). Elution positions of adrenomedullin (ADM, M r 6029), big ET-1 (bET-1, M r 4283) and ET-1 (M r 2492) are indicated. […] ELDP (red columns) and CT-proET-1 (blue columns) were measured using immunoassays. […]
ProET-1 peptides were subjected to reverse phase HPLC on C4 silica (15 µm, 300 Å pore, 1 × 25 cm; Jupiter® Phenomenex) with gradient elution at 2 ml/min: 0.1% TFA – 15% solvent B (80% CH3CN with 0.1% TFA) over 2 min, followed by 15–60% B over 45 min. […] Synthetic peptides were used to characterise elution positions of NT-proET-1, ELDP and CT-proET-1 on this second HPLC system by monitoring absorbance at 280 nm and immunoassay of fractions. […]

The conditions of series [5]: cited from earlier work. The source says: The endothelin-like domain sequence is highly conserved with the first four Cys residues having identical spacing to ET-1 (Fig. 6)[18], [19]. There is also considerable sequence homology adjacent to the endothelin-like domain, which has been retained throughout mammalian evolution, such that human ppET-1[107–131] has 92% sequence identity with mouse ELDP and 88% with platypus over this sequence. […] However, choice of test conditions and pepti ...

[6] abbreviates: 1 mM phosphoramidon, 4 experiments.
Setting [7] is: 1 nmol/kg i.v. bolus, plasma sampled 0.5–40 min, two-phase clearance.

Where no end group is shown, it is not given here.

With `CC(C)C[C@H](NP(=O)(O)O[C@@H]1O[C@@H](C)[C@H](O)[C@@H](O)[C@H]1O)C(=O)N[C@@H](Cc1c[nH]c2ccccc12)C(=O)O` [phosphoramidon], in series [1] (setting [6]), the ET-1 synthesis result is recorded as “suppressed” and the “proET-1 peptide production (NT-proET-1, ELDP, CT-proET-1)” value is recorded as “no effect”. The “increase in big ET-1 compared to basal” value in series [1] (1 mM phosphoramidon, confluent human aortic endothelial cells, mean ± SD from 4 experiments) stood at 14.9 ± 2.8 fold.
As for “APETAVLGAELSAVGENGGEKPTPSPPWRLRRS [NT-proET-1]”, the “time to almost complete clearance from the circulation” value in series [2] (1 nmol/kg i.v. bolus) is less than 5 min. Further, the “estimated initial t½” value in series [2] (1 nmol/kg i.v. bolus, plasma) was less than 20 s. Besides, in series [2], the “plasma level at 30 s as % of administered peptide, relative to estimates for dilution in circulating blood” value is reported as “≈ 1%” and the level at time molar at 0.5 min turned out to be 0.29 ± 0.02 nM.
As to Apple procyanidin pentamer, the “synthesis/secretion of all peptides (ET-1, big ET-1 and proET-1 peptides)” value in series [1] (apple procyanidin pentamer 2.5 or 5 µg/ml, grape seed extract 5 µg/ml, TGFß 1 ng/ml, % basal release, 4 experiments) is on record as “reduced”.
Turning to Endothelin-1 [ET-1], the “t½ in the circulation” value in series [3] is 30 to 60 s.
In the case of “SSEEHLRQTRSETMRNSVKSSFHDPKLKGKPSRERYVTHNRAHW [CT-proET-1]”, in series [2] (setting [7]), the “estimated t½, phase 1” value was 42 s and the “estimated t½, phase 2” value is 438 s. Also, in series [2], the “plasma level at 30 s as % of administered peptide, relative to estimates for dilution in circulating blood” value is on record as 34–51% and the level at time molar at 0.5 min worked out at 11.7 ± 0.64 nM. Besides, the “elution position on RP-HPLC (fraction number)” value in series [4] is listed as 28 fraction.
On to TNFα, for which, in series [1] (TNFα 10 ng/ml, 4 experiments), the “ET-1 and ELDP in conditioned media” value was “did not change”; the “big ET-1 concentrations” value is reported as “increased”; the “levels of NT-proET-1 and CT-proET-1 in conditioned media” value is “significantly increased”.
Take “ppET-1[110–130]: preproendothelin [110–130] fragment tested in an earlier study (QCASQKDKKCWNFCQAGKELR; UniProt P05305 110-130, looked up, fragment)”: the cardiovascular effects entry in series [5] is recorded as “failed to show any cardiovascular effects”.

The record behind these values is article PMC5503984, “Characterisation of preproendothelin-1 derived peptides identifies Endothelin-Like Domain Peptide as a modulator of Endothelin-1” (Scientific Reports, 2017).
